According to US10364256B2 (GlaxoSmithKline Intellectual Property Development Limited, priority 2015, dated 2019):

Legend:
[1] = target: T1, Keap1 Kelch domain (321-609) / TAMRA-labeled 16mer NRF2 peptide (ETGE motif) (Homo sapiens, UniProt Q14145); assay: NRF2-Keap1 FP Assay (Keap1 Kelch fluorescence polarization); format: binding; details: 20 nM Keap1 (321-609), 8 nM Tamra labeled peptide
T1 construct: the Kelch domain (321-609) of Keap1 is used
How it was run: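 Compound dilutions (3-fold) were incubated 1 hr at room temperature with 20 nM Keap1 Kelch (321-609) and 8 nM TAMRA-labeled ETGE 16mer peptide. Buffer was 50 mM Tris pH 8.0, 100 mM NaCl, 5 mM MgCl2, 1 mM DTT, 2 mM CHAPS, 0.005% BSA. Fluorescence polarization (mP) was normalized to controls and fitted with a four-parameter equation to give pIC50.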

[2] = target: T2, full length Keap1 protein / full length NRF2 protein (Homo sapiens, UniProt Q14145); assay: NRF2-Keap1 TR-FRET Assay; format: binding; details: 25 nM Keap1-FlagHis and 50 nM biotin-NRF2 added
T2 construct: full length NRF2 protein and full length Keap1 protein (Keap1 exists a dimer) are used; His
How it was run: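 Displacement of biotinylated full-length NRF2 from full-length Keap1 read by Eu/APC TR-FRET (665/615 nm) after 1 h detection at RT. Compound, 3-fold series, first incubated with Keap1 at 37 °C for 2.25 h, NRF2 then added at 4 °C for 1.25 h; pIC50 by four-parameter equation.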

T2 sequence (Q14145 whole entry): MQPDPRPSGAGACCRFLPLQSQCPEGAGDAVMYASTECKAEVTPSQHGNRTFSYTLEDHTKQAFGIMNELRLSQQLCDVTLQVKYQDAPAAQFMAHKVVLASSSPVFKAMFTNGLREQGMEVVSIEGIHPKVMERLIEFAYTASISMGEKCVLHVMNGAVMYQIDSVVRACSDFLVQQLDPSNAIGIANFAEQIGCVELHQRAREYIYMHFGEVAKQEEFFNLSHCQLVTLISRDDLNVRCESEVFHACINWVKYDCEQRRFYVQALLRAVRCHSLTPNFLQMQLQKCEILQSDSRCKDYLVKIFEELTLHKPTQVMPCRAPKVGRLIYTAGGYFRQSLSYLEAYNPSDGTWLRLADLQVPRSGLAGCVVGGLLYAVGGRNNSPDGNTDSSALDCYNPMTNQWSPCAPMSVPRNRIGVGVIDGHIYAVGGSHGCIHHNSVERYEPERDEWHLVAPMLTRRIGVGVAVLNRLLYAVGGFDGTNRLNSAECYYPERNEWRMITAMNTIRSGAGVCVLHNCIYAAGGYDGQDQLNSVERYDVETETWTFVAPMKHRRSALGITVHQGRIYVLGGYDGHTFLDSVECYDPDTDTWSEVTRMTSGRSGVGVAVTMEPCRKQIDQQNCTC
T1 sequence (Q14145 321-609): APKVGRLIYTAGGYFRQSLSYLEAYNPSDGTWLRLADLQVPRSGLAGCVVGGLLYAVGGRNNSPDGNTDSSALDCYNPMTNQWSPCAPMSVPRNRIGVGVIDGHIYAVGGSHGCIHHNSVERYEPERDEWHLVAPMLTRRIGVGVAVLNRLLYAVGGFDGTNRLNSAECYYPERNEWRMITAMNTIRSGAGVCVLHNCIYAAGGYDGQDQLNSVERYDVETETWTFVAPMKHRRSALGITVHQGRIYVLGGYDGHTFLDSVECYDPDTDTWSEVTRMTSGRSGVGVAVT

Row | IC50 [1] [nM] | IC50 [2] [nM] | SMILES
1 | 10 to 100 | 100 to 1000 | Cn1cc([C@@H]2C[C@H]2c2c(C(=O)O)cnn2-c2cccc(-c3cccc(OCCC4CCCCC4)c3)c2)nn1 (racemic) [Example 245, 1-(3′-(2-cyclohexylethoxy)-[1,1′-biphenyl]-3-yl)-5-(trans-2-(1-methyl-1H-1,2,3-triazol-4-yl)cyclopropyl)-1H-pyrazole-4-carboxylic Acid]
2 | 10 to 100 | 100 to 1000 | CC(Oc1cccc(-c2cccc(-n3ncc(C(=O)O)c3C3CC3c3cn(C)nn3)c2)c1)c1ccccc1 (stereo not shown) [Example 235, 5-(2-(1-Methyl-1H-1,2,3-triazol-4-yl)cyclopropyl)-1-(3′-(1-phenylethoxy)-[1,1′-biphenyl]-3-yl)-1H-pyrazole-4-carboxylic Acid]
3 | 10 to 100 | 100 to 1000 | CC(Oc1cccc(-c2cccc(-n3ncc(C(=O)O)c3C3CC3c3cn(C)nn3)c2)c1)C1CC1 (stereo not shown) [Example 231, 1-(3′-(1-Cyclopropylethoxy)-[1,1′-biphenyl]-3-yl)-5-(2-(1-methyl-1H-1,2,3-triazol-4-yl)cyclopropyl)-1H-pyrazole-4-carboxylic acid]
4 | 10 to 100 | 10 to 100 | CC(Oc1cccc(-c2cccc(-n3ncc(C(=O)O)c3C3CC3c3cn(C)nn3)c2)c1)C1CCOCC1 (stereo not shown) [Example 227, 5-(2-(1-Methyl-1H-1,2,3-triazol-4-yl)cyclopropyl)-1-(3′-(1-(tetrahydro-2H-pyran-4-yl)ethoxy)-[1,1′-biphenyl]-3-yl)-1H-pyrazole-4-carboxylic Acid]
5 | 100 to 1000 | 1000 to 10000 | Cn1cc([C@@H]2C[C@H]2c2c(C(=O)O)cnn2-c2cccc(-c3cncc(OCC4CCCCC4)c3)c2)nn1 (racemic) [Example 246, 1-(3-(5-(Cyclohexylmethoxy)pyridin-3-yl)phenyl)-5-(trans-2-(1-methyl-1H-1,2,3-triazol-4-yl)cyclopropyl)-1H-pyrazole-4-carboxylic Acid]
6 | 100 to 1000 | 1000 to 10000 | Cn1cc([C@H]2C[C@@H]2c2c(C(=O)O)cnn2-c2cccc(-c3cccc(OCc4cccc(-c5ccccc5)c4)c3)c2)nn1 (racemic) [Example 238, 1-(3′-([1,1′-Biphenyl]-3-ylmethoxy)-[1,1′-biphenyl]-3-yl)-5-((1,2- trans)-2-(1-methyl-1H-1,2,3-triazol-4-yl)cyclopropyl)-1H-pyrazole-4-carboxylic acid]
7 | 10 to 100 | 100 to 1000 | Cn1cc(C2CC2c2c(C(=O)O)cnn2-c2cccc(-c3cccc(OCc4ccccc4F)c3)c2)nn1 (stereo not shown) [Example 222, 1-(3′-((2-Fluorobenzyl)oxy)-[1,1′-biphenyl]-3-yl)-5-(2-(1-methyl-1H-1,2,3-triazol-4-yl)cyclopropyl)-1H-pyrazole-4-carboxylic acid]
8 | 10 to 100 | 100 to 1000 | Cn1cc(C2CC2c2c(C(=O)O)cnn2-c2cccc(-c3cccc(OC4CCOCC4)c3F)c2)nn1 (stereo not shown) [Example 234, 1-(2′-Fluoro-3′-((tetrahydro-2H-pyran-4-yl)oxy)-[1,1′-biphenyl]-3-yl)-5-(2-(1-methyl-1H-1,2,3-triazol-4-yl)cyclopropyl)-1H-pyrazole-4-carboxylic Acid]

More lines, now with the values behind:

Row | SMILES | IC50 [1] [nM] | IC50 [2] [nM]
9 | CCn1cc([C@H]2C[C@@H]2c2c(C(=O)O)cnn2-c2cccc(-c3cccc(OC(C)C4CCCCC4)c3)c2)nn1 (mixture of isomers) [Example 192, 1-(3′-(1-cyclohexylethoxy)-[1,1′-biphenyl]-3-yl)-5-((1,2-trans)-2-(1-ethyl-1H-1,2,3-triazol-4-yl)cyclopropyl)-1H-pyrazole-4-carboxylic acid] | 10 to 100 | 100 to 1000
10 | Cn1cc(C2CC2c2c(C(=O)O)cnn2-c2cccc(-c3cccc(OCC4CCCCC4)c3)c2)nn1 (stereo not shown) [Example 164, 1-(3′-(Cyclohexylmethoxy)-[1,1′-biphenyl]-3-yl)-5-(2-(1-methyl-1H-1,2,3-triazol-4-yl)cyclopropyl)-1H-pyrazole-4-carboxylic acid] | 10 to 100 | 100 to 1000
11 | Cn1cc([C@@H]2C[C@H]2c2c(C(=O)O)cnn2-c2cccc(-c3cccc(OCC4CCSCC4)c3)c2)nn1 (racemic) [Example 149, 5-((1,2-trans)-2-(1-Methyl-1H-1,2,3-triazol-4-yl)cyclopropyl)-1-(3′-((tetrahydro-2H-thiopyran-4-yl)methoxy)-[1,1′-biphenyl]-3-yl)-1H-pyrazole-4-carboxylic acid] | 100 to 1000 | 100 to 1000
12 | O=C(O)c1cnn(-c2cccc(-c3cccc(-n4ncc5c4CCCC5)c3)c2)c1C1CC1 [Example 62, 5-cyclopropyl-1-(3′-(4,5,6,7-tetrahydro-1H-indazol-1-yl)-[1,1′-biphenyl]-3-yl)-1H-pyrazole-4-carboxylic Acid] | 100 to 1000 | 1000 to 10000
13 | Cn1cc([C@@H]2C[C@H]2c2c(C(=O)O)cnn2-c2cccc(-c3cccc(OC(C4CCCCC4)C(F)(F)F)c3)c2)nn1 (mixture of isomers) [Example 157, 1-(3′-(1-Cyclohexyl-2,2,2-trifluoroethoxy)-[1,1′-biphenyl]-3-yl)-5-((1,2-trans)-2-(1-methyl-1H-1,2,3-triazol-4-yl)cyclopropyl)-1H-pyrazole-4-carboxylic Acid] | 100 to 1000 | 100 to 1000
14 | CCC[C@@H]1CCCCN1C(=O)c1cccc(-c2cccc(-n3nc(C)c(C(=O)O)c3C3CC3c3cn(C)nn3)c2)c1 (stereo partly drawn) [Example 202, 3-Methyl-5-(2-(1-methyl-1H-1,2,3-triazol-4-yl)cyclopropyl)-1-(3′-((R)-2-propylpiperidine-1-carbonyl)-[1,1′-biphenyl]-3-yl)-1H-pyrazole-4-carboxylic acid] | 10 to 100 | 10 to 100
15 | CCC[C@@H]1CCCCN1C(=O)c1cncc(-c2cccc(-n3ncc(C(=O)O)c3C3CC3c3cn(C)nn3)c2)c1 (stereo partly drawn) [Example 197, 5-(2-(1-Methyl-1H-1,2,3-triazol-4-yl)cyclopropyl)-1-(3-(5-((R)-2-propylpiperidine-1-carbonyl)pyridin-3-yl)phenyl)-1H-pyrazole-4-carboxylic acid] | 10 to 100 | 10 to 100
16 | CO[C@H]1CC[C@H](COc2cccc(-c3cccc(-n4ncc(C(=O)O)c4[C@H]4C[C@@H]4c4cn(C)nn4)c3)c2)CC1 (racemic) [Example 176, 1-(3′-(((1R,4S)-4-Methoxycyclohexyl)methoxy)-[1,1′-biphenyl]-3-yl)-5-((1,2-trans)-2-(1-methyl-1H-1,2,3-triazol-4-yl)cyclopropyl)-1H-pyrazole-4-carboxylic acid] | 10 to 100 | 100 to 1000
17 | CC[C@@H]1CN(Cc2cccc(-c3cccc(-n4ncc(C(=O)O)c4C4CC4c4cn(C)nn4)c3)c2)Cc2ccccc2O1 (stereo partly drawn) [Example 129, 1-(3′-(((R)-2-ethyl-2,3-dihydrobenzo[f][1,4]oxazepin-4(5H)-yl)methyl)-[1,1′-biphenyl]-3-yl)-5-(2-(1-methyl-1H-1,2,3-triazol-4-yl)cyclopropyl)-1H-pyrazole-4-carboxylic Acid] | 10 to 100 | 10 to 100
18 | CCC[C@@H]1CCCCN1C(=O)c1cccc(-c2cccc(-n3ncc(C(=O)O)c3C3CC3c3cnn(C)c3)c2)c1 (stereo partly drawn) [Example 213, 5-(2-(1-Methyl-1H-pyrazol-4-yl)cyclopropyl)-1-(3′-((R)-2-propylpiperidine-1-carbonyl)-[1,1′-biphenyl]-3-yl)-1H-pyrazole-4-carboxylic Acid] | 10 to 100 | 10 to 100
19 | CC(Oc1cccc(-c2cccc(-n3ncc(C(=O)O)c3C3CC3c3cn(C)nn3)c2)c1)C1CCCCC1 (stereo not shown) [Example 219, 1-(3′-(1-Cyclohexylethoxy)-[1,1′-biphenyl]-3-yl)-5-(2-(1-methyl-1H-1,2,3-triazol-4-yl)cyclopropyl)-1H-pyrazole-4-carboxylic acid] | 10 to 100 | 100 to 1000
20 | CCC[C@@H]1CCCCN1C(=O)c1cccc(-c2cccc(-n3ncc(C(=O)O)c3[C@H]3C[C@@H]3c3cn(C)nn3)c2)c1 [Example 51g, 5-[(1S,2S)-2-(1-methyl-1H-1,2,3-triazol-4-yl)cyclopropyl]-1-(3-{3-[(2R)-2-propylpiperidine-1-carbonyl]phenyl}phenyl)-1H-pyrazole-4-carboxylic Acid] | 100 to 1000 | 1000 to 10000
21 | CCC[C@@H]1CCCCN1C(=O)c1cccc(-c2cccc(-n3ncc(C(=O)O)c3C3CC3c3cnn(C)c3)c2)c1F (stereo partly drawn) [Example 214, 1-(2′-Fluoro-3′-((R)-2-propylpiperidine-1-carbonyl)-[1,1′-biphenyl]-3-yl)-5-(2-(1-methyl-1H-pyrazol-4-yl)cyclopropyl)-1H-pyrazole-4-carboxylic Acid] | 10 to 100 | 10 to 100
22 | COC(c1cccc(-c2cccc(-n3ncc(C(=O)O)c3C3CC3c3cn(C)nn3)c2)c1)C1CCCC1 (stereo not shown) [Example 183, 1-(3′-(Cyclopentyl(methoxy)methyl)-[1,1′-biphenyl]-3-yl)-5-(2-(1-methyl-1H-1,2,3-triazol-4-yl)cyclopropyl)-1H-pyrazole-4-carboxylic acid] | 10 to 100 | 100 to 1000
23 | CCCC1(C)CCc2cnn(-c3cccc(-c4cccc(-n5ncc(C(=O)O)c5C5CC5)c4)c3)c21 (stereo not shown) [Example 205, 5-Cyclopropyl-1-(3′-(6-methyl-6-propyl-5,6-dihydrocyclopenta[c]pyrazol-1(4H)-yl)-[1,1′-biphenyl]-3-yl)-1H-pyrazole-4-carboxylic Acid] | 100 to 1000 | 100 to 1000
